In publication PMC6792352, “Limited Chemical Structural Diversity Found to Modulate Thyroid Hormone Receptor in the Tox21 Chemical Library” (Environmental Health Perspectives, 2019) one finds CC50 data, which are given here for 72 compounds.

The nature of the data set: in vitro. The conditions noted are these: rat, gh3-tre-luc cells.

The structures appear in SMILES notation. Structures can show the parent of a compound that is named as a salt. Bounds are passed on as bounds.

`COP(=O)(OC)O/C(C)=C/C(=O)N(C)C` [Dicrotophos] had a CC50 at 24 h (AC50 (uM) modified / 1000, Tox21_110001=Tox21_301078, viability, 1 nM T3 present, 24 h) of over 90 µM.
`CCCCCCCCCCCCCCCCCC(=O)OCCO` [2-Hydroxyethyl octadecanoate]: the CC50 at 24 h (AC50 (uM) modified / 1000) was over 50 µM.
The compound `CCCCCCCCCCCCCl` [1-Chlorododecane] gave a CC50 at 24 h (AC50 (uM) modified / 1000, Tox21_110001=Tox21_201790, viability, 1 nM T3 present, 24 h) of over 90 µM.
The compound `CCCOCC(C)O` (stereo not shown) [1-Propoxy-2-propanol] showed a CC50 at 24 h (AC50 (uM) modified / 1000) of over 90 µM.
As to `COc1ccc(C2CNC(=O)C2)cc1OC1CCCC1` (stereo not shown) [Rolipram], the CC50 at 24 h (AC50 (uM) modified / 1000) was over 20 µM.
In the case of `COc1ccc(C2NC(=S)N3C(c4ccc(OC)c(OC)c4)NC(=S)N23)cc1OC` (stereo not shown) [3,7-Bis(3,4-dimethoxyphenyl)tetrahydro-1H,5H-[1,2,4]triazolo[1,2-a][1,2,4]triazole-1,5-dithione], half-maximal cytotoxicity (AC50 (uM) modified / 1000) (CC50 at 24 h) was put at 0.208 µM.
As to `CCc1cc(Cc2cc(CC)cc(C(C)(C)C)c2O)c(O)c(C(C)(C)C)c1` [2,2'-Methylenebis(ethyl-6-tert-butylphenol)], for the setting “AC50 (uM) modified / 1000”, the CC50 at 24 h is 7.35 µM.
Same read-out and setting: under `O=C(O)c1cccc(N(Cc2cccnc2)c2ccc(OC(F)F)c(OC(F)F)c2)c1` [PharmaGSID_48510] stands 75.3 µM.
On the same count and under the same terms, under `CC(=O)Oc1ccc(C2(c3ccc(OC(C)=O)cc3)C(=O)Nc3ccccc32)cc1` [Oxyphenisatin acetate] stands over 50 µM.
Still for that read-out and setting: then `C[C@]12CCC(=O)C=C1C=C[C@@H]1[C@@H]2CC[C@@]2(C)[C@H]1CC[C@@]21CCC(=O)O1` [Canrenone], with over 50 µM.
Take `CC(C)CC(C)N` (stereo not shown) [1,3-Dimethylbutylamine]: the CC50 at 24 h (AC50 (uM) modified / 1000, Tox21_110001=Tox21_201157, viability, 1 nM T3 present, 24 h) is over 90 µM.
For the setting “AC50 (uM) modified / 1000, Tox21_110001=Tox21_201556, viability, 1 nM T3 present, 24 h”, `N#CC(c1ccccc1)c1ccccc1` [Diphenylacetonitrile] came in with a CC50 at 24 h of over 90 µM.
Where the note is “AC50 (uM) modified / 1000”, `CCN[C@H]1C[C@H](C)S(=O)(=O)c2sc(S(N)(=O)=O)cc21` [Dorzolamide hydrochloride] came in with a CC50 at 24 h of over 50 µM.
Still for that read-out and setting: then `CCCCCCCCCCCCCO` [1-Tridecanol], with over 90 µM.
On the same count and under the same terms, under `N[C@@H](CSCC(=O)O)C(=O)O` [Carbocysteine] stands over 50 µM.
`Nc1cc(Cl)ccc1O` [2-Amino-4-chlorophenol] yielded a CC50 at 24 h (AC50 (uM) modified / 1000) of 30.7 µM.
Same read-out and setting: then `CC1=C(C(=O)O)N2C(=O)[C@@H](NC(=O)[C@H](N)c3ccc(O)cc3)[C@H]2SC1` [Cefadroxil], with over 20 µM.
Same read-out and setting: under `CN1C(=O)[C@@H](NC(=O)c2cc3ccccc3[nH]2)N=C(c2ccccc2)c2ccccc21` [Devazepide] stands over 50 µM.
For `NNC(N)=O` [Semicarbazide hydrochloride], for the setting “AC50 (uM) modified / 1000”, the CC50 at 24 h is over 90 µM.
As for `CC(C)CCCCCCOC(=O)c1ccc(C(=O)OCCCCCCC(C)C)c(C(=O)OCCCCCCC(C)C)c1` [Triisononyl trimellitate], for the setting “AC50 (uM) modified / 1000”, the CC50 at 24 h was over 90 µM.
Same read-out and setting: under `C#CCN[C@@H]1CCc2ccccc21` [Rasagiline mesylate] stands over 50 µM.
Same read-out and setting: then `CCOC(=O)CC(CC(=O)OCC)(OC(C)=O)C(=O)OCC` [Acetyltriethyl citrate], with over 90 µM; and `C=C[C@]1(C)C[C@@H](OC(=O)CSC(C)(C)CNC(=O)[C@H](N)C(C)C)[C@]2(C)[C@H](C)CC[C@]3(CCC(=O)[C@H]32)[C@@H](C)[C@@H]1O` [Valnemulin], with 2.37 µM; and `CCCCC(CC)(CO)CO` [2-Butyl-2-ethyl-1,3-propanediol], with over 90 µM.
Still for that read-out and setting: under `Brc1ccc(Oc2ccc(Br)cc2)cc1` [4,4'-Dibromodiphenyl ether] stands over 90 µM.
`CCOP(=S)(OCC)SCCSCC` [Disulfoton]: the CC50 at 24 h runs as follows: (AC50 (uM) modified / 1000, Tox21_110001=Tox21_202343, viability, 1 nM T3 present, 24 h) over 90 µM; (AC50 (uM) modified / 1000, Tox21_110001=Tox21_300861, viability, 1 nM T3 present, 24 h) over 40 µM.
Compound `CC(CC(c1ccccc1)c1ccccc1)NC(C)(C)C` (stereo not shown) [Terodiline hydrochloride] gave a cytotoxic concentration (CC50) at 24 h (AC50 (uM) modified / 1000) of 11 µM.
Same read-out and setting: under `COS(=O)(=O)C(F)(F)F` [Methyl trifluoromethanesulfonate] stands over 100 µM; under `Cc1ccc(O)cc1` [p-Cresol], over 100 µM; under `Nc1ccccc1S(=O)(=O)c1ccccc1` [2-(Phenylsulfonyl)aniline], over 90 µM.
On to `O=C=NC1CCCCC1` [Isocyanatocyclohexane], for which the CC50 at 24 h (AC50 (uM) modified / 1000, Tox21_110001=Tox21_200234, viability, 1 nM T3 present, 24 h) is over 90 µM.
Turning to `CC(COC(C)(C)C)OCCCO` (stereo not shown) [Di(propylene glycol) tert-butyl ether], the CC50 at 24 h (AC50 (uM) modified / 1000) is over 90 µM.
Consider `O=C(Cc1cccs1)N[C@@H]1C(=O)N2C(C(=O)[O-])=C(C[n+]3ccccc3)CS[C@H]12` [Cephaloridine], for which the CC50 at 24 h (AC50 (uM) modified / 1000) is over 50 µM.
The same measure, in the same setting: under `Cc1ccc2ncccc2c1` [6-Methylquinoline] stands over 90 µM.
In the case of `C[C@@H]1[C@H]2Cc3ccc(O)cc3[C@]1(C)CCN2C` [(-)-Metazocine fumarate (1:1)], under “AC50 (uM) modified / 1000, Tox21_110001=Tox21_112855, viability, 1 nM T3 present, 24 h”, the CC50 at 24 h was over 200 µM.
The compound `COc1nc(N)nc2nc[nH]c12` [O6-Methylguanine] returned a CC50 at 24 h (AC50 (uM) modified / 1000) of over 90 µM.
Still for that read-out and setting: then `CC1(C)[C@H]2CC[C@]1(C)C(=O)C2=O` [(+)Camphorquinone], with over 90 µM; and `NCc1cccc(CN)c1` [1,3-Benzenedimethanamine], with over 90 µM.
In turn, `CCc1ccc(C=O)cc1` [4-Ethylbenzaldehyde] had a CC50 at 24 h (AC50 (uM) modified / 1000) of over 90 µM.
`N#Cc1ccccc1O` [2-Hydroxybenzonitrile] yielded a CC50 at 24 h (AC50 (uM) modified / 1000) of over 90 µM.
Same read-out and setting: under `CCCCC(CC)COC(=O)c1ccc(N(C)C)cc1` (stereo not shown) [2-Ethylhexyl 4-(dimethylamino)benzoate] stands over 90 µM; under `CCCCCCCCNC` [N-Methyloctan-1-amine], over 90 µM; under `CC(C)(C)NSc1nc2ccccc2s1` [N-tert-Butyl-2-benzothiazolesulfenamide], over 90 µM.
For the compound `Nc1ccc(Cc2ccc(N)c(Cl)c2)cc1Cl` [4,4'-Methylenebis(2-chloroaniline)], the CC50 at 24 h (AC50 (uM) modified / 1000) is 67.7 µM.
For the compound `O=C(c1ccccc1O)c1ccccc1O` [2,2'-Dihydroxybenzophenone], the cytotoxic concentration (CC50) at 24 h (AC50 (uM) modified / 1000) is over 90 µM.
Still for that read-out and setting: under `COc1ccc(CN2CCNCC2)c(OC)c1OC` [Trimetazidine dihydrochloride] stands over 20 µM; under `CNc1ncnc2nc[nH]c12` [(N-6)-Methyladenine], over 90 µM.
`CCC(N)Cc1c[nH]c2ccccc12` (stereo not shown) [Etryptamine] yielded a CC50 at 24 h (AC50 (uM) modified / 1000, Tox21_110001=Tox21_112618, viability, 1 nM T3 present, 24 h) of over 50 µM.
As to `c1ccc2c(c1)ccc1ccccc12` [Phenanthrene], under “AC50 (uM) modified / 1000”, the CC50 at 24 h was over 90 µM.
Same read-out and setting: under `C=C(C)C(=O)OCCCCOC(=O)C(=C)C` [Butane-1,4-diyl bis(2-methylprop-2-enoate)] stands over 90 µM; under `C=CCOCC1CO1` (stereo not shown) [Allyl glycidyl ether], over 90 µM; under `OCCN1CCNCC1` [1-Piperazineethanol], over 90 µM.
Turning to `O=S(=O)(O)CO` [Sodium hydroxymethanesulfonate], the CC50 at 24 h (AC50 (uM) modified / 1000) was over 90 µM.
`COc1cc([C@@H]2c3cc4c(cc3[C@@H](O[C@@H]3O[C@@H]5CO[C@@H](c6cccs6)O[C@H]5[C@H](O)[C@H]3O)[C@H]3COC(=O)[C@H]23)OCO4)cc(OC)c1O` [Teniposide]: the midpoint of cytotoxicity (AC50 (uM) modified / 1000), the CC50 at 24 h, lay at 4.5 µM.
Same read-out and setting: under `Cc1c(Cn2ccnc2)c2ccccc2n1CCC(=O)O` [Dazmegrel] stands over 50 µM; under `CC1(c2ccccc2)OC(C(=O)O)=CC1=O` (stereo not shown) [Acifran], over 50 µM.
On the same count and under the same terms, under `C(CCOCC1CO1)COCC1CO1` (stereo not shown) [1,4-Butanediol diglycidyl ether] stands over 90 µM; under `CCOC(=O)OCC` [Diethyl carbonate], over 100 µM.
Take `CC[C@H](N)c1ccccc1` [(S)-(-)-1-Amino-1-phenylpropane]: the CC50 at 24 h (AC50 (uM) modified / 1000, Tox21_110001=Tox21_202829, viability, 1 nM T3 present, 24 h) was over 90 µM.
`CC(C)CCC[C@@H](C)[C@H]1CC(=O)C2=C3CC[C@H]4C[C@@H](O)CC[C@]4(C)[C@H]3CC[C@@]21C` [Colestolone] returned a CC50 at 24 h (AC50 (uM) modified / 1000) of over 50 µM.
The same measure, in the same setting: then `CC(C)(O)c1ccccc1CC[C@@H](SCC1(CC(=O)O)CC1)c1cccc(/C=C/c2ccc3ccc(Cl)cc3n2)c1` [Montelukast sodium], with 35.1 µM; and `CCCCC(CC)COC(=O)CC#N` (stereo not shown) [2-Ethylhexyl cyanoacetate], with over 90 µM; and `OC(CCl)CCl` [1,3-Dichloro-2-propanol], with over 90 µM.
Regarding `C=CCCCCCCCCCCCCCCCC` [1-Octadecene], the CC50 at 24 h (AC50 (uM) modified / 1000) is over 5 µM.
Where the note is “AC50 (uM) modified / 1000”, `O=C(O)c1ccccc1Nc1cccc(C(F)(F)F)c1` [Flufenamic acid] gave a CC50 at 24 h of over 50 µM.
On to `Cc1cccc2sc(N)nc12` [2-Amino-4-methylbenzothiazole], for which the CC50 at 24 h (AC50 (uM) modified / 1000) was over 90 µM.
The same measure, in the same setting: under `OCCN(CCO)c1ccccc1` [N-Phenyldiethanolamine] stands over 90 µM; under `CCCCOC(=O)C(C)CC` (stereo not shown) [Butyl 2-methylbutyrate], over 90 µM.
The same measure, in the same setting: under `Cc1cc(=O)[nH]c(=S)[nH]1` [6-Methyl-2-thiouracil] stands over 90 µM; under `CCN(CC)CCO[C@H]1CC[C@@]2(C)C(=CC[C@@H]3[C@@H]2CC[C@]2(C)C(=O)CC[C@@H]32)C1` [3beta-(2-Diethylaminoethoxy)androst-5-en-17-one hydrochloride], over 50 µM; under `CCCCOC(=O)c1ccccc1C(=O)OCCCC` [Dibutyl phthalate], over 90 µM.
On the same count and under the same terms, under `CCOC(=O)c1ccccc1O` [Ethyl salicylate] stands over 50 µM.
